Experimental data from publication doi:10.1101/630459v1 (bioRxiv, 2019).
Marks after values point to notes of the source that are not given here.

Assays:
Assay type in all cases: in vivo, BALB/cAnNRj mice
Serum parameter analysis = experiment: Serum parameter analysis
active caspase-3 = experiment: Indirect immunohistochemistry of active caspase-3 in organ cryosections
Blood parameter analysis = experiment: Blood parameter analysis
[1] = busulfan 18.8 mg/kg i.p., d3, mean, n = 6
[2] = busulfan 18.8 mg/kg i.p., d5, mean, n = 10
[3] = busulfan 18.8 mg/kg i.p. day 0, 2, 4, day 5, n = 5, mean ± SD
[4] = busulfan 18.8 mg/kg i.p., d5, mean, n = 11
[5] = doxorubicin 4 mg/kg BW i.p., d8, mean, n = 3
[6] = doxorubicin 4 mg/kg BW i.p., d15, mean, n = 4
[7] = doxorubicin 4 mg/kg BW i.p. day 0, 7, 14, day 15, n = 3, mean ± SD
[8] = doxorubicin 4 mg/kg BW i.p. day 0, 7, 14, day 15, n = 4, mean ± SD
[9] = cisplatin 20 mg/kg BW i.p. once, d1, mean, n = 3
[10] = cisplatin 20 mg/kg BW i.p. once, d2, mean, n = 8
[11] = cisplatin 20 mg/kg BW i.p. once, d2, mean, n = 9
[12] = cisplatin 20 mg/kg BW i.p. once, d3, mean, n = 4
[13] = cisplatin 20 mg/kg BW i.p. once, day 3, n = 3, mean ± SD
[14] = cisplatin 20 mg/kg BW i.p. once, d2, mean, n = 12
[15] = cisplatin 20 mg/kg BW i.p. once, d3, mean, n = 5

`CS(=O)(=O)OCCCCOS(C)(=O)=O` [Busulfan] gave an ALT (Serum parameter analysis; [1]) of 55.33 U/L, an AST (Serum parameter analysis; [1]) of 82.5 U/L and a CK (Serum parameter analysis; [1]) of 141.5 U/L. The Creatinine (Serum parameter analysis; [1]) was 11.17 µmol/L, the Urea (Serum parameter analysis; [1]) was 7.81 mmol/L and the ALT (Serum parameter analysis; [2]) was 87.1 U/L. The AST (Serum parameter analysis; [2]) was 84.4 U/L, the CK (Serum parameter analysis; [2]) was 160.2 U/L and the Creatinine (Serum parameter analysis; [2]) was 12.6 µmol/L. The Urea (Serum parameter analysis; [2]) was 7.19 mmol/L, the “caspase-3 activation, liver” value (active caspase-3; [3]) was 3.0 ± 0.1 % area and the “caspase-3 activation, lungs” value (active caspase-3; [3]) was 0.4 ± 0.1 % area. For the same compound, the HCT (Blood parameter analysis; [1]) was 42.0%, the HGB (Blood parameter analysis; [1]) was 15.2 g/dL and the PLT (Blood parameter analysis; [1]) was 849.3 10^3/µl. The RBC (Blood parameter analysis; [1]) was 9.79 10^6/µl, the WBC (Blood parameter analysis; [1]) was 4730 µL⁻¹ and the HCT (Blood parameter analysis; [4]) was 35.2%. For the same compound, the HGB (Blood parameter analysis; [4]) was 13.3 g/dL, the PLT (Blood parameter analysis; [4]) was 1.175e+06 µL⁻¹ and the RBC (Blood parameter analysis; [4]) was 8.32 10^6/µl. For the same compound, the WBC (Blood parameter analysis; [4]) was 4940 µL⁻¹.
In the case of `COc1cccc2c1C(=O)c1c(O)c3c(c(O)c1C2=O)C[C@@](O)(C(=O)CO)C[C@@H]3O[C@H]1C[C@H](N)[C@H](O)[C@H](C)O1` [Doxorubicin], the ALT (Serum parameter analysis; [5]) is reported as 90.33** U/L, the AST (Serum parameter analysis; [5]) is reported as 94.67 U/L and the CK (Serum parameter analysis; [5]) is reported as 109.7 U/L. For the same compound, the Creatinine (Serum parameter analysis; [5]) was 15.33* µmol/L, the Urea (Serum parameter analysis; [5]) was 7.73 mmol/L and the ALT (Serum parameter analysis; [6]) was 52.25 U/L. The AST (Serum parameter analysis; [6]) was 96.5 U/L, the CK (Serum parameter analysis; [6]) was 195.3* U/L and the Creatinine (Serum parameter analysis; [6]) was 16.25** µmol/L. For the same compound, the Urea (Serum parameter analysis; [6]) was 7 mmol/L, the “caspase-3 activation, liver” value (active caspase-3; [7]) was 3.5 ± 1.5 % area and the “caspase-3 activation, lungs” value (active caspase-3; [7]) was 0.7 ± 0.1 % area. The “caspase-3 activation, heart” value (active caspase-3; [8]) was 2.2 ± 0.7 % area, the “caspase-3 activation, kidneys” value (active caspase-3; [8]) was 1.1 ± 0.3 % area and the “caspase-3 activation, lungs” value (active caspase-3; doxorubicin 4 mg/kg BW i.p., day 8, n = 3, mean ± SD) was 0.6 ± 0.2 % area. The HCT (Blood parameter analysis; [5]) was 41.2%, the PLT (Blood parameter analysis; [5]) was 1011 10^3/µl and the RBC (Blood parameter analysis; [5]) was 9.62 10^6/µl. For the same compound, the WBC (Blood parameter analysis; [5]) was 9.2 10^3/µl, the HCT (Blood parameter analysis; [6]) was 34.1*** % and the PLT (Blood parameter analysis; [6]) was 1.106e+06 µL⁻¹. The RBC (Blood parameter analysis; [6]) was 7.98*** 10^6/µl and the WBC (Blood parameter analysis; [6]) was 6.5 10^3/µl.
Compound `N.N.[Cl][Pt][Cl]` [Cisplatin] has an ALT (Serum parameter analysis; [9]) of 58 U/L, an AST (Serum parameter analysis; [9]) of 122 U/L and a CK (Serum parameter analysis; [9]) of 180.7 U/L. For the same compound, the Creatinine (Serum parameter analysis; [9]) was 16.67 µmol/L, the Urea (Serum parameter analysis; [9]) was 6.32 mmol/L and the ALT (Serum parameter analysis; [10]) was 88.88 U/L. For the same compound, the AST (Serum parameter analysis; [10]) was 200* U/L, the CK (Serum parameter analysis; [11]) was 372.6 U/L and the Creatinine (Serum parameter analysis; [11]) was 27.67** µmol/L. The Urea (Serum parameter analysis; [11]) was 15.09* mmol/L, the ALT (Serum parameter analysis; [12]) was 63.5 U/L and the AST (Serum parameter analysis; [12]) was 183.8 U/L. The CK (Serum parameter analysis; [12]) was 586.3* U/L, the Creatinine (Serum parameter analysis; [12]) was 22.25 µmol/L and the Urea (Serum parameter analysis; [12]) was 11.08 mmol/L. For the same compound, the “caspase-3 activation, kidneys” value (active caspase-3; cisplatin 20 mg/kg BW i.p. once, day 2, n = 3, mean ± SD) was 1.0 ± 0.1 % area, the “caspase-3 activation, liver” value (active caspase-3; [13]) was 4.3 ± 0.7 % area and the “caspase-3 activation, lungs” value (active caspase-3; [13]) was 0.5 ± 0.1 % area. The “caspase-3 activation, spleen” value (active caspase-3; cisplatin 20 mg/kg BW i.p. once, day 3, n = 4, mean ± SD) was 10.5 ± 4.8 % area, the HCT (Blood parameter analysis; [9]) was 43.5** % and the HGB (Blood parameter analysis; [9]) was 15.9* g/dL. The PLT (Blood parameter analysis; [9]) was 797 10^3/µl, the RBC (Blood parameter analysis; [9]) was 10.23 10^6/µl and the WBC (Blood parameter analysis; [9]) was 5.63 10^3/µl. The HCT (Blood parameter analysis; [14]) was 40.5%, the HGB (Blood parameter analysis; [14]) was 15.08 g/dL and the RBC (Blood parameter analysis; [14]) was 9.45 10^6/µl. The WBC (Blood parameter analysis; [14]) was 4.85** 10^3/µl, the HCT (Blood parameter analysis; [15]) was 41.6% and the HGB (Blood parameter analysis; [15]) was 15.38 g/dL. For the same compound, the PLT (Blood parameter analysis; [15]) was 1147** 10^3/µl, the RBC (Blood parameter analysis; [15]) was 9.81e+06 µL⁻¹ and the WBC (Blood parameter analysis; [15]) was 3.68** 10^3/µl.
